Measurements from ChEMBL document CHEMBL5154901, “Development of Predictive Classification Models for Whole Cell Antimycobacterial Activity of Benzothiazinones” (J Med Chem, 2022).
Values after ≈ are worked out from the molar mass of the structure shown.

Tested on: Mycolicibacterium vaccae
Assay: Antimycobacterial activity against Mycobacterium vaccae (JMRC:STI:10670) assessed as reduction in bacterial growth incubated for 42 hrs by serial dilution method
Type: functional
Conditions: Mycolicibacterium vaccae, JMRC:STI:10670, read-out: MIC

Row | Compound | MIC [µM]
1 | CN(C(=O)CN1CCN(c2nc(=O)c3cc(C(F)(F)F)cc([N+](=O)[O-])c3s2)CC1)c1ccccc1 | 0.0061 (≈ 0.0031 µg/mL)
2 | CN(CC1(CO)CCCC1)c1nc(=O)c2cc(C(F)(F)F)cc([N+](=O)[O-])c2s1 | 0.0599 (≈ 0.025 µg/mL)
3 | O=c1nc(N2CCn3cc(C(F)(F)F)nc3C2)sc2c([N+](=O)[O-])cc(C(F)(F)F)cc12 | 0.0838 (≈ 0.039 µg/mL)
4 | O=C(CN1CCN(c2nc(=O)c3cc(C(F)(F)F)cc([N+](=O)[O-])c3s2)CC1)NCCc1ccccc1 | 0.479 (≈ 0.25 µg/mL)
5 | Cc1ccc([C@@]2(O)CCN(c3nc(=O)c4cc(C(F)(F)F)cc([N+](=O)[O-])c4s3)C2)cc1 | 0.0554 (≈ 0.025 µg/mL)
6 | COc1ccc2c(c1)CN(c1nc(=O)c3cc(C(F)(F)F)cc([N+](=O)[O-])c3s1)C2 | 0.0591 (≈ 0.025 µg/mL)
7 | O=c1nc(N2CCN(CC(F)(F)F)CC2)sc2c([N+](=O)[O-])cc(C(F)(F)F)cc12 | 0.007 (≈ 0.0031 µg/mL)
8 | O=c1nc(N2CCn3cc(-c4ccc(F)cc4)nc3C2)sc2c([N+](=O)[O-])cc(C(F)(F)F)cc12 | 0.0049 (≈ 0.00241 µg/mL)
9 | N#Cc1ccccc1N1CCN(c2nc(=O)c3cc(C(F)(F)F)cc([N+](=O)[O-])c3s2)CC1 | 0.0087 (≈ 0.00401 µg/mL)
10 | CN1CCN(C(=O)C(F)(F)C(F)(F)C(F)(F)C(=O)N2CCN(c3nc(=O)c4cc(C(F)(F)F)cc([N+](=O)[O-])c4s3)CC2)CC1 | 0.0376 (≈ 0.025 µg/mL)
11 | CN(CC(F)(F)CO)c1nc(=O)c2cc(C(F)(F)F)cc([N+](=O)[O-])c2s1 | 0.0626 (≈ 0.025 µg/mL)
12 | O=c1nc(N2CCN(S(=O)(=O)c3ccc(OC(F)(F)F)cc3)CC2)sc2c([N+](=O)[O-])cc(C(F)(F)F)cc12 | 0.0274 (≈ 0.016 µg/mL)
13 | CN(CCCO)c1nc(=O)c2cc(C(F)(F)F)cc([N+](=O)[O-])c2s1 | 0.0716 (≈ 0.026 µg/mL)
14 | CCCCN(Cc1ccccc1)c1nc(=O)c2cc(C(F)(F)F)cc([N+](=O)[O-])c2s1 | 0.0286 (≈ 0.0125 µg/mL)
15 | O=C(CN1CCN(c2nc(=O)c3cc(C(F)(F)F)cc([N+](=O)[O-])c3s2)CC1)N1CCCC1 | 0.0658 (≈ 0.031 µg/mL)
16 | O=c1nc(N2CCC(OC3CCN(CC(F)(F)F)CC3)CC2)sc2c([N+](=O)[O-])cc(C(F)(F)F)cc12 | 0.0115 (≈ 0.00622 µg/mL)
17 | O=c1nc(N2CC[C@H](c3ccccc3)[C@@H](O)C2)sc2c([N+](=O)[O-])cc(C(F)(F)F)cc12 | 0.0069 (≈ 0.00311 µg/mL)
18 | CCCCCCN(C)c1nc(=O)c2cc(C(F)(F)F)cc([N+](=O)[O-])c2s1 | 0.0321 (≈ 0.0125 µg/mL)

Tested on: not listed separately
Assay: Cytotoxicity against human HeLa cells assessed as reduction in cell viability incubated for 72 hrs by methylene blue staining based colorimetric assay
Type: toxicity
Conditions: not given

Row | Compound | CC50 at 72 h [µM]
19 | CN(C(=O)CN1CCN(c2nc(=O)c3cc(C(F)(F)F)cc([N+](=O)[O-])c3s2)CC1)c1ccccc1 | 70.3
20 | CN(CC1(CO)CCCC1)c1nc(=O)c2cc(C(F)(F)F)cc([N+](=O)[O-])c2s1 | > 120
21 | O=c1nc(N2CCn3cc(C(F)(F)F)nc3C2)sc2c([N+](=O)[O-])cc(C(F)(F)F)cc12 | > 107
22 | O=C(CN1CCN(c2nc(=O)c3cc(C(F)(F)F)cc([N+](=O)[O-])c3s2)CC1)NCCc1ccccc1 | 87.8
23 | Cc1ccc([C@@]2(O)CCN(c3nc(=O)c4cc(C(F)(F)F)cc([N+](=O)[O-])c4s3)C2)cc1 | > 111
24 | COc1ccc2c(c1)CN(c1nc(=O)c3cc(C(F)(F)F)cc([N+](=O)[O-])c3s1)C2 | > 118
25 | O=c1nc(N2CCN(CC(F)(F)F)CC2)sc2c([N+](=O)[O-])cc(C(F)(F)F)cc12 | > 113
26 | O=c1nc(N2CCn3cc(-c4ccc(F)cc4)nc3C2)sc2c([N+](=O)[O-])cc(C(F)(F)F)cc12 | > 102
27 | N#Cc1ccccc1N1CCN(c2nc(=O)c3cc(C(F)(F)F)cc([N+](=O)[O-])c3s2)CC1 | > 108
28 | CN1CCN(C(=O)C(F)(F)C(F)(F)C(F)(F)C(=O)N2CCN(c3nc(=O)c4cc(C(F)(F)F)cc([N+](=O)[O-])c4s3)CC2)CC1 | > 75.2
29 | CN(CC(F)(F)CO)c1nc(=O)c2cc(C(F)(F)F)cc([N+](=O)[O-])c2s1 | 109
30 | O=c1nc(N2CCN(S(=O)(=O)c3ccc(OC(F)(F)F)cc3)CC2)sc2c([N+](=O)[O-])cc(C(F)(F)F)cc12 | 31.5
31 | CN(CCCO)c1nc(=O)c2cc(C(F)(F)F)cc([N+](=O)[O-])c2s1 | 103
32 | CCCCN(Cc1ccccc1)c1nc(=O)c2cc(C(F)(F)F)cc([N+](=O)[O-])c2s1 | > 114
33 | O=C(CN1CCN(c2nc(=O)c3cc(C(F)(F)F)cc([N+](=O)[O-])c3s2)CC1)N1CCCC1 | > 106
34 | O=c1nc(N2CCC(OC3CCN(CC(F)(F)F)CC3)CC2)sc2c([N+](=O)[O-])cc(C(F)(F)F)cc12 | > 93
35 | O=c1nc(N2CC[C@H](c3ccccc3)[C@@H](O)C2)sc2c([N+](=O)[O-])cc(C(F)(F)F)cc12 | 73.1
36 | CCCCCCN(C)c1nc(=O)c2cc(C(F)(F)F)cc([N+](=O)[O-])c2s1 | 75.5

Tested on: not listed separately
Assay: Metabolic stability in human liver microsomes at 20 uM assessed as half life measured up to 90 mins by LC-HRMS analysis
Type: ADME, Microsome
Conditions: not given

Row | Compound | half-life at 20 µM [min]
37 | CN(C(=O)CN1CCN(c2nc(=O)c3cc(C(F)(F)F)cc([N+](=O)[O-])c3s2)CC1)c1ccccc1 | 88.9
38 | O=c1nc(N2CCN(Cc3ccc(OC(F)(F)F)cc3)CC2)sc2c([N+](=O)[O-])cc(C(F)(F)F)cc12 | 43.6
39 | O=c1nc(N2CCN(CC(F)(F)c3ccc(F)c(F)c3)CC2)sc2c([N+](=O)[O-])cc(C(F)(F)F)cc12 | 45.3
40 | O=c1nc(N2CCN(C(c3ccccc3)C(F)(F)F)CC2)sc2c([N+](=O)[O-])cc(C(F)(F)F)cc12 (stereo not drawn) | 88.9
41 | N#Cc1cccc(CN2CCN(c3nc(=O)c4cc(C(F)(F)F)cc([N+](=O)[O-])c4s3)CC2)c1 | 60.3
42 | O=c1nc(N2CCN(CC(F)(F)F)CC2)sc2c([N+](=O)[O-])cc(C(F)(F)F)cc12 | 103
43 | O=c1nc(N2CCn3cc(-c4ccc(F)cc4)nc3C2)sc2c([N+](=O)[O-])cc(C(F)(F)F)cc12 | 54.6
44 | N#Cc1ccccc1N1CCN(c2nc(=O)c3cc(C(F)(F)F)cc([N+](=O)[O-])c3s2)CC1 | 99
45 | O=c1nc(N2CCC(OC3CCN(CC(F)(F)F)CC3)CC2)sc2c([N+](=O)[O-])cc(C(F)(F)F)cc12 | 40.5
46 | O=c1nc(N2CC[C@H](c3ccccc3)[C@@H](O)C2)sc2c([N+](=O)[O-])cc(C(F)(F)F)cc12 | 52.5
47 | O=C(O)Cc1ccccc1Nc1c(Cl)cccc1Cl [DICLOFENAC] | 6.3

Tested on: not listed separately
Assay: Metabolic stability in human liver microsomes at 20 uM assessed as intrinsic clearance measured up to 90 mins by LC-HRMS analysis
Type: ADME, Microsome
Conditions: read-out: CLH

Row | Compound | microsomal CLint at 20 µM [µL/min/mg]
48 | CN(C(=O)CN1CCN(c2nc(=O)c3cc(C(F)(F)F)cc([N+](=O)[O-])c3s2)CC1)c1ccccc1 | 15.8
49 | O=c1nc(N2CCN(Cc3ccc(OC(F)(F)F)cc3)CC2)sc2c([N+](=O)[O-])cc(C(F)(F)F)cc12 | 32.1
50 | O=c1nc(N2CCN(CC(F)(F)c3ccc(F)c(F)c3)CC2)sc2c([N+](=O)[O-])cc(C(F)(F)F)cc12 | 30.9
51 | O=c1nc(N2CCN(C(c3ccccc3)C(F)(F)F)CC2)sc2c([N+](=O)[O-])cc(C(F)(F)F)cc12 (stereo not drawn) | 22.4
52 | N#Cc1cccc(CN2CCN(c3nc(=O)c4cc(C(F)(F)F)cc([N+](=O)[O-])c4s3)CC2)c1 | 23.2
53 | O=c1nc(N2CCN(CC(F)(F)F)CC2)sc2c([N+](=O)[O-])cc(C(F)(F)F)cc12 | 13.5
54 | O=c1nc(N2CCn3cc(-c4ccc(F)cc4)nc3C2)sc2c([N+](=O)[O-])cc(C(F)(F)F)cc12 | 25.7
55 | N#Cc1ccccc1N1CCN(c2nc(=O)c3cc(C(F)(F)F)cc([N+](=O)[O-])c3s2)CC1 | 14.1
56 | O=c1nc(N2CCC(OC3CCN(CC(F)(F)F)CC3)CC2)sc2c([N+](=O)[O-])cc(C(F)(F)F)cc12 | 34.5
57 | O=c1nc(N2CC[C@H](c3ccccc3)[C@@H](O)C2)sc2c([N+](=O)[O-])cc(C(F)(F)F)cc12 | 26.7
58 | O=C(O)Cc1ccccc1Nc1c(Cl)cccc1Cl [DICLOFENAC] | 222
